This is an account of results in PubChem BioAssay (NCI).

Assay in all cases: NCI tumour cell line growth inhibition, 48 h
Assay [1] has as its system SN12C renal.
Assay [2] deals with T-47D breast.
The subject of assay [3] is NCI-H23 lung.
For assay [4], the system named is PC-3 prostate.
For assay [5], the system named is UACC-62 melanoma.
Assay [6] has as its system HS 578T breast.
Assay [7] has as its system HL-60(TB) leukemia.
Assay [8] has as its system 786-0 renal.
The subject of assay [9] is HCC-2998 colon.
For assay [10], the system named is HCT-116 colon.

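These data come from cells grown in 96-well plates and exposed to compound for 48 hours at five concentrations. TGI: concentration producing complete growth inhibition.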 Where a SMILES comes first, the peptide text is derived from it. Bridges are numbered along the chain shown (N, C = ends).

Turning to `O=[N+]([O-])/C(Cl)=C(\NCCO)C(Cl)=C(Cl)Cl`, the TGI is greater than 100 µM in assay [1]; 99.8 µM in assay [2]; greater than 100 µM in assay [3]; greater than 100 µM in assay [4]; greater than 100 µM in assay [5]; greater than 91.5 µM in [6]. Moreover, the TGI in [7] was 11.4 µM; in assay [8], 73.8 µM; in [9], greater than 100 µM; in assay [10], 81.5 µM.
In the case of `CC(=O)OC1C2CCC3CC2C2(SCCS2)C31` (stereo unspecified), the TGI in assay [1], in assay [2], in assay [3], in [4], in [5] and in assay [6] was greater than 100 µM in each case. The TGI in [7], in assay [8], in [9] and in [10] was greater than 100 µM throughout.
For the molecule `Cc1cccc(NC(=S)Nc2cccc(Cl)c2)n1`, the TGI in assay [1], in assay [2], in assay [3], in [4], in assay [5] and in assay [6] was greater than 100 µM in each case. Besides, the TGI in [7], in assay [8], in assay [9] and in assay [10] was greater than 100 µM throughout.
In the case of `CC1=NN(c2ccccc2)C(=O)/C1=C\c1c(C)[nH]n(-c2ccccc2)c1=O`, the TGI in assay [1], in [2], in assay [3], in [4], in assay [5] and in assay [6] was greater than 100 µM throughout. The TGI in [7], in assay [8], in [9] and in assay [10] was greater than 100 µM each time.
For `COC(=O)C1CCC(=O)NCCCCC(NC(=O)C(N)CC(=O)O)C(=O)N1` (stereo not drawn) (H-Asp-Lys-Glu-OMe; lactam 2-3; configuration not given here), the TGI in [1], in assay [2], in assay [3], in assay [4], in [5] and in assay [6] was greater than 100 µM throughout. In addition, the TGI in [7], in assay [8], in assay [9] and in [10] was greater than 100 µM in each case.
As for `CCOC(=O)c1cnc2n(c1=O)[C@H]1CCCC[C@@H]1N2`, the TGI in assay [1], in assay [2], in [3], in [4], in assay [5] and in assay [6] was greater than 100 µM each time. Moreover, the TGI in assay [7], in [8], in assay [9] and in [10] was greater than 100 µM in each case.
Take `C[C@@H]1C[C@@H]2OC(=O)[C@]3(C)[C@H]2[C@@H](OC3(C)O)[C@]2(C)C(=O)C=C[C@@H]12` (stereo partly specified): the TGI in [1] was 38.1 µM; in [2], 44.5 µM; in assay [3], 70 µM; in assay [4] it was greater than 100 µM; in assay [5], 31.6 µM; in [6] it was greater than 100 µM. Moreover, the TGI in assay [7] is 11.2 µM; in assay [8] it was greater than 100 µM; in [9] it was 35.1 µM; in assay [10], 37.6 µM.
With `O=C1CC(c2cccc([N+](=O)[O-])c2)C2(C(=O)NC(=S)NC2=O)C(c2cccc([N+](=O)[O-])c2)C1` (stereo unspecified), the TGI was 52.3 µM in assay [1]; greater than 100 µM in [2]; greater than 100 µM in assay [3]; greater than 100 µM in [4]; 60.6 µM in [5]; 84.3 µM in assay [6]. Besides, the TGI in [7] is greater than 100 µM; in assay [8], greater than 100 µM; in assay [9] it was 59.2 µM; in [10], 43.7 µM.
Regarding `C=CCN1C(=O)C[C@H](Cc2ccccc2)NC(=O)C[C@H](Cc2ccccc2)N(CC=C)C(=O)C[C@H](Cc2ccccc2)NC(=O)C[C@@H]1Cc1ccccc1`, the TGI in [1], in assay [2], in [3], in [4], in [5] and in assay [6] was greater than 100 µM in each case. Besides, the TGI in [7] is 9.37 µM; in assay [8] it was greater than 100 µM; in assay [10] it was greater than 100 µM.
Turning to `Cc1c2oc(=O)c(C#N)cc2c2ccccn12`, the TGI in assay [2], in assay [3], in [4], in assay [5], in [6] and in assay [7] was greater than 100 µM in each case. Further, the TGI in assay [8], in assay [9] and in [10] was greater than 100 µM in each case.
In the case of `CC(Cl)(CCC(Cl)C(C)(C)Cl)C(=O)CBr` (stereo unspecified), the TGI is 28.7 µM in assay [1]; 50.7 µM in assay [2]; 39.5 µM in assay [3]; 28.2 µM in [4]; 22.7 µM in [5]; 58.1 µM in [6]. The TGI in assay [7] was greater than 100 µM; in [8], 20.7 µM; in assay [9] it was 30.9 µM; in assay [10] it was 18.2 µM.
Regarding `O=C1OC2(CCCCC2)C(Oc2ccc(Cl)cc2)=C1F`, the TGI in assay [1] was greater than 100 µM; in assay [2], greater than 100 µM; in assay [4] it was greater than 100 µM; in [5], greater than 100 µM; in assay [6], greater than 100 µM; in assay [7], 62.8 µM. The results for the TGI in assay [8], in assay [9] and in [10] were greater than 100 µM, 57 µM and greater than 100 µM, respectively.
On to `COc1ccc(N=C(C)C(C)=Nc2ccc(OC)cc2)cc1`, for which the TGI in assay [1], in [2], in [3], in [4], in assay [6] and in assay [7] was greater than 100 µM in each case. Besides, the values for the TGI in [8], in [9] and in [10] were greater than 100 µM, 82.6 µM and greater than 100 µM, respectively.
As to `C[C@H](NC(=O)C(C)(Cc1ccc(O)cn1)NC(=O)c1ccccc1)c1ccccc1` (stereo partly specified), the TGI in assay [1], in [2], in assay [3], in assay [4], in assay [5] and in assay [6] was greater than 100 µM in each case. Also, the TGI in assay [7], in assay [8], in assay [9] and in assay [10] was greater than 100 µM in each case.
